Results from PubChem BioAssay AID206 (DTP/NCI, 2004).
Records with an inconclusive call do not appear.

Tested on: nude mice, HT29 intrarenal xenograft, tumor weight T/C
Test: NCI In Vivo Anticancer Drug Screen. Data for tumor model HT29;CX-1 Human Adenocarcinoma (MER+) (intrarenal inoculation) in NU/NU Swiss (nude) mice
Details: endpoint: mean tumor weight change, higher = larger tumour
Method in brief: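 T/C = treated-group value ÷ vehicle-group value, using tumor size or survival.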

[1] = dose: 37.5 mg/kg/injection, schedule: Q04DX004 (sc), vehicle: Klucel (hydroxypropylcellulose) (HPC)
[2] = dose: 75.0 mg/kg/injection, schedule: Q04DX004 (sc), vehicle: Klucel (hydroxypropylcellulose) (HPC)
[3] = dose: 150.0 mg/kg/injection, schedule: Q04DX004 (sc), vehicle: Klucel (hydroxypropylcellulose) (HPC)
[4] = dose: 300.0 mg/kg/injection, schedule: Q04DX004 (sc), vehicle: Klucel (hydroxypropylcellulose) (HPC)
[5] = dose: 0.5 mg/kg/injection, schedule: Q01DX010 (sc), vehicle: saline
[6] = dose: 600.0 mg/kg/injection, schedule: Q04DX004 (sc), vehicle: Klucel (hydroxypropylcellulose) (HPC)
[7] = dose: 1200.0 mg/kg/injection, schedule: Q04DX004 (sc), vehicle: Klucel (hydroxypropylcellulose) (HPC)

Q: How did the T/C (dose: 0.25 mg/kg/injection, schedule: Q04DX004 (sc), vehicle: Klucel (hydroxypropylcellulose) (HPC)) turn out when `CC1(O)CC23CC(O)C4(O)C(CC(O)C4(C)C)C(C)(O)C2CCC1C3O` (stereo unspecified) was run?
A: 46 % of control

Q: And the T/C (dose: 0.5 mg/kg/injection, schedule: Q04DX004 (sc), vehicle: Klucel (hydroxypropylcellulose) (HPC))?
A: 37 % of control

Q: And the T/C (dose: 1.0 mg/kg/injection, schedule: Q04DX004 (sc), vehicle: Klucel (hydroxypropylcellulose) (HPC))?
A: 82 % of control

Q: `COc1cccc(C2NC(=O)c3c(n[nH]c3N)S2)c1O` (stereo unspecified) was tested. Which T/C (dose: 1200.0 mg/kg/injection, schedule: Q04DX004 (sc), vehicle: saline with Tween-80) did it give?
A: 53 % of control

Q: What about the T/C (dose: 2400.0 mg/kg/injection, schedule: Q04DX004 (sc), vehicle: saline with Tween-80) of the same compound?
A: 117 % of control

Q: How did the T/C [1] turn out when `O=NN(CCCl)C(=O)Oc1ccc(OC(=O)N(CCCl)N=O)cc1` was run?
A: 44 % of control

Q: What about the T/C [2] of the same compound?
A: 67 % of control

Q: And the T/C [3]?
A: 29 % of control

Q: What about the T/C [4] of the same compound?
A: 23 % of control

Q: `O=NNc1ccccn1` was tested. Which T/C (dose: 0.13 mg/kg/injection, schedule: Q01DX010 (sc), vehicle: saline) did it give?
A: 150 % of control

Q: And the T/C (dose: 0.25 mg/kg/injection, schedule: Q01DX010 (sc), vehicle: saline)?
A: 176 % of control

Q: What about the T/C [5] of the same compound?
A: 112 % of control

Q: And the T/C (dose: 1.0 mg/kg/injection, schedule: Q01DX010 (sc), vehicle: saline)?
A: 208 % of control

Q: What about the T/C (dose: 4.0 mg/kg/injection, schedule: Q01DX010 (sc), vehicle: saline) of the same compound?
A: 105 % of control

Q: What about the T/C (dose: 32.0 mg/kg/injection, schedule: Q01DX010 (sc), vehicle: saline) of the same compound?
A: 90 % of control

Q: For `CC1=C(C)C(=O)O[C@@H]([C@](C)(O)[C@]2(O)CC[C@@]3(O)[C@@H]4C[C@H]5O[C@]56CC=CC(=O)[C@]6(C)[C@H]4CC[C@]23C)C1`, which T/C (dose: 450.0 mg/kg/injection, schedule: Q04DX004 (sc), vehicle: suspension in saline) is on record?
A: 86 % of control

Q: What about the T/C (dose: 900.0 mg/kg/injection, schedule: Q04DX004 (sc), vehicle: suspension in saline) of the same compound?
A: 76 % of control

Q: And the T/C (dose: 1800.0 mg/kg/injection, schedule: Q04DX004 (sc), vehicle: suspension in saline)?
A: 102 % of control

Q: With `CC(=Nc1ccccc1)C1=C(O)C(Cc2ccccc2)NC1=O` (stereo unspecified) as the compound, how does the T/C (dose: 75.0 mg/kg/injection, schedule: Q04DX004 (sc), vehicle: saline with Tween-80) read?
A: 66 % of control

Q: What about the T/C (dose: 150.0 mg/kg/injection, schedule: Q04DX004 (sc), vehicle: saline with Tween-80) of the same compound?
A: 105 % of control

Q: What about the T/C (dose: 300.0 mg/kg/injection, schedule: Q04DX004 (sc), vehicle: saline with Tween-80) of the same compound?
A: 43 % of control

Q: What about the T/C (dose: 600.0 mg/kg/injection, schedule: Q04DX004 (sc), vehicle: saline with Tween-80) of the same compound?
A: 80 % of control

Q: What does the source list for `Clc1ccc(C(c2ccccc2Cl)C(Cl)Cl)cc1` (stereo unspecified)?
A: T/C (dose: 1200.0 mg/kg/injection, schedule: Q04DX004 (sc), vehicle: saline): 99 % of control; T/C (dose: 2400.0 mg/kg/injection, schedule: Q04DX004 (sc), vehicle: saline): 64 % of control; T/C (dose: 4800.0 mg/kg/injection, schedule: Q04DX004 (sc), vehicle: saline): 77 % of control; T/C (dose: 9600.0 mg/kg/injection, schedule: Q04DX004 (sc), vehicle: saline): 67 % of control

Q: For `CSc1nc(=O)[nH]nc1SCc1ccccc1`, which T/C (dose: 200.0 mg/kg/injection, schedule: Q04DX004 (sc), vehicle: Klucel (hydroxypropylcellulose) (HPC)) is on record?
A: 76 % of control

Q: What about the T/C (dose: 400.0 mg/kg/injection, schedule: Q04DX004 (sc), vehicle: Klucel (hydroxypropylcellulose) (HPC)) of the same compound?
A: 56 % of control

Q: And the T/C (dose: 800.0 mg/kg/injection, schedule: Q04DX004 (sc), vehicle: Klucel (hydroxypropylcellulose) (HPC))?
A: 90 % of control

Q: Which T/C [5] does the source give for `COC(=O)C[C@](O)(CCCC(C)(C)O)C(=O)O[C@@H]1C(OC)=C[C@]23CCCN2CCc2cc4c(cc2[C@H]13)OCO4` here?
A: 41 % of control

Q: Which results are given for `Cc1ccc(S(=O)(=O)OCOS(=O)(=O)c2ccc(C)cc2)cc1`?
A: T/C [3]: 118 % of control; T/C [4]: 100 % of control; T/C [6]: 53 % of control; T/C [7]: 68 % of control

Q: Which results are given for `CC12CC(C(=O)O)C3(O)CC(C)(C1)CC(C)(C2)C3` (stereo unspecified) (tested in a mixture with another compound)?
A: T/C [3]: 48 % of control; T/C [4]: 54 % of control; T/C [6]: 66 % of control; T/C [7]: 110 % of control

Q: Which results are given for `CC(C)NCC(O)COc1ccc(O)c(O)c1` (stereo unspecified)?
A: T/C (dose: 3.0 mg/kg/injection, schedule: Q04DX004 (sc), vehicle: saline): 107 % of control; T/C (dose: 6.0 mg/kg/injection, schedule: Q04DX004 (sc), vehicle: saline): 103 % of control; T/C (dose: 12.0 mg/kg/injection, schedule: Q04DX004 (sc), vehicle: saline): 164 % of control

Q: With `NC(=O)/C=C/C(=O)c1c(Cl)cccc1Cl` as the compound, how does the T/C (dose: 36.0 mg/kg/injection, schedule: Q04DX004 (sc), vehicle: saline with Tween-80) read?
A: 52 % of control

Q: Which T/C (dose: 12.5 mg/kg/injection, schedule: Q01DX010 (sc), vehicle: water) does the source give for `O=C(Nc1ccc(C2=NCCN2)cc1)c1ccc(C(=O)Nc2ccc(C3=NCCN3)cc2)c(Cl)c1` here?
A: 101 % of control

Q: What about the T/C (dose: 25.0 mg/kg/injection, schedule: Q01DX010 (sc), vehicle: water) of the same compound?
A: 61 % of control

Q: And the T/C (dose: 50.0 mg/kg/injection, schedule: Q01DX010 (sc), vehicle: water)?
A: 78 % of control

Q: Which T/C (dose: 25.0 mg/kg/injection, schedule: Q01DX010 (sc), vehicle: dextrose) does the source give for `O=C(O)CC(=O)O.[NH-]CC[NH-].[Pt+2]` here?
A: 29 % of control

Q: What about the T/C (dose: 50.0 mg/kg/injection, schedule: Q01DX010 (sc), vehicle: dextrose) of the same compound?
A: 41 % of control

Q: `NC(=O)Oc1cccc(OC(N)=O)c1` was tested. Which T/C (dose: 50.0 mg/kg/injection, schedule: Q04DX004 (sc), vehicle: suspension in saline) did it give?
A: 110 % of control

Q: And the T/C (dose: 100.0 mg/kg/injection, schedule: Q04DX004 (sc), vehicle: suspension in saline)?
A: 102 % of control

Q: And the T/C (dose: 200.0 mg/kg/injection, schedule: Q04DX004 (sc), vehicle: suspension in saline)?
A: 29 % of control

Q: What about the T/C (dose: 400.0 mg/kg/injection, schedule: Q04DX004 (sc), vehicle: suspension in saline) of the same compound?
A: 62 % of control

Q: How did the T/C (dose: 50.0 mg/kg/injection, schedule: Q04DX004 (sc), vehicle: saline) turn out when `CCC(C(=O)O)C(=O)O.[NH-]CC1CCCC[N-]1.[Pt+2]` was run?
A: 113 % of control

Q: And the T/C (dose: 100.0 mg/kg/injection, schedule: Q04DX004 (sc), vehicle: saline)?
A: 96 % of control

Q: What about the T/C (dose: 200.0 mg/kg/injection, schedule: Q04DX004 (sc), vehicle: saline) of the same compound?
A: 79 % of control

Q: And the T/C (dose: 400.0 mg/kg/injection, schedule: Q04DX004 (sc), vehicle: saline)?
A: 59 % of control

Q: With `O=S(=O)(O)O.[NH-]C1CCCCC1[NH-].[Pt+2]` (stereo unspecified) as the compound, how does the T/C (dose: 0.62 mg/kg/injection, schedule: Q01DX010 (sc), vehicle: dextrose) read?
A: 21 % of control

Q: `CCCCN(CCCC)C(Cl)=Nc1ccccc1` was tested. Which T/C (dose: 100.0 mg/kg/injection, schedule: Q04DX004 (sc), vehicle: other) did it give?
A: 103 % of control

Q: What about the T/C (dose: 200.0 mg/kg/injection, schedule: Q04DX004 (sc), vehicle: other) of the same compound?
A: 100 % of control

Q: What about the T/C (dose: 400.0 mg/kg/injection, schedule: Q04DX004 (sc), vehicle: other) of the same compound?
A: 96 % of control

Q: And the T/C (dose: 800.0 mg/kg/injection, schedule: Q04DX004 (sc), vehicle: other)?
A: 91 % of control

Q: How did the T/C (dose: 100.0 mg/kg/injection, schedule: Q04DX004 (sc), vehicle: water) turn out when `Cc1noc(N)c1N` was run?
A: 200 % of control

Q: What about the T/C (dose: 400.0 mg/kg/injection, schedule: Q04DX004 (sc), vehicle: water) of the same compound?
A: 98 % of control

Q: What about the T/C (dose: 800.0 mg/kg/injection, schedule: Q04DX004 (sc), vehicle: water) of the same compound?
A: 200 % of control

Q: With `CCCCCn1c(C)cc(/C=C\c2ccc3cc(C)ccc3[n+]2C)c1C` as the compound, how does the T/C (dose: 1.0 mg/kg/injection, schedule: Q01DX010 (sc), vehicle: Klucel (hydroxypropylcellulose) (HPC)) read?
A: 89 % of control

Q: What about the T/C (dose: 2.0 mg/kg/injection, schedule: Q01DX010 (sc), vehicle: Klucel (hydroxypropylcellulose) (HPC)) of the same compound?
A: 182 % of control

Q: And the T/C (dose: 4.0 mg/kg/injection, schedule: Q01DX010 (sc), vehicle: Klucel (hydroxypropylcellulose) (HPC))?
A: 89 % of control

Q: Which T/C (dose: 12.5 mg/kg/injection, schedule: Q01DX010 (sc), vehicle: saline with Tween-80) does the source give for `CC(=O)O[C@@H]1[C@@H](O)C2=C3[C@]4(C)[C@@H]1C(C)(C)C(=O)C[C@@H]4[C@]3(O)[C@H](OC(C)=O)[C@@]1(C[C@@H]1C)C2=O` here?
A: 77 % of control

Q: And the T/C (dose: 25.0 mg/kg/injection, schedule: Q01DX010 (sc), vehicle: saline with Tween-80)?
A: 122 % of control

Q: And the T/C (dose: 50.0 mg/kg/injection, schedule: Q01DX010 (sc), vehicle: saline with Tween-80)?
A: 26 % of control

Q: And the T/C (dose: 100.0 mg/kg/injection, schedule: Q01DX010 (sc), vehicle: saline with Tween-80)?
A: 68 % of control

Q: How did the T/C [1] turn out when `NC(=O)c1ncn(C2OC(CO)C(O)C2O)c1O` (stereo unspecified) was run?
A: 76 % of control

Q: What about the T/C [2] of the same compound?
A: 77 % of control

Q: What about the T/C [3] of the same compound?
A: 71 % of control

Q: And the T/C [4]?
A: 62 % of control

Q: What does the source list for `COc1ccc(Cl)[n+]([O-])n1`?
A: T/C (dose: 50.0 mg/kg/injection, schedule: Q04DX004 (sc), vehicle: Klucel (hydroxypropylcellulose) (HPC)): 64 % of control; T/C (dose: 100.0 mg/kg/injection, schedule: Q04DX004 (sc), vehicle: Klucel (hydroxypropylcellulose) (HPC)): 66 % of control
